{"source": "patent US6676941B2", "about": "(Board of Regents, The University of Texas System, priority 1999, dated 2004)", "key": {"VEGFR2 (KDR/Fc)": {"system": "VEGFR2 (KDR/Fc)", "assay": "Co-precipitation assay, VEGF binding to VEGFR2/Fc in solution", "conditions": "40 ng VEGF, 200 ng receptor/Fc; 2C3 F(ab′)2 20 μg, A4.6.1 F(ab′)2 10 and 1 μg", "protocol": "(§1) 200 ng of soluble forms of VEGFR1 (Flt-1/Fc) or VEGFR2 (KDR/Fc, R&D Systems, Minneapolis, Minn.) were added for a total volume of 50 μl and incubated for 2 hrs. The receptor/Fc constructs were precipitated using Protein A-sepharose beads and the resulting precipitate was washed 4 times with binding buffer.\n(§2) Reducing sample buffer was added to the pellet and supernatant of each reaction and both were analyzed by 12% SDS-PAGE and transferred to PVDF membranes. […] The soluble receptor/Fc constructs were also detected by using peroxidase-conjugated goat anti-human Fc (Kirkegaard & Perry Laboratories, Inc.)\n(§3) The receptor/Fc constructs were precipitated by incubation with Protein A sepharose beads. The precipitate was washed and resuspended in reducing sample buffer and separated by 12% SDS-PAGE and transferred to PVDF."}, "VEGFR1 (Flt-1/Fc)": {"system": "VEGFR1 (Flt-1/Fc)", "assay": "Co-precipitation assay, VEGF binding to VEGFR1/Fc in solution", "conditions": "40 ng VEGF, 200 ng receptor/Fc; 2C3 F(ab′)2 20 μg, A4.6.1 F(ab′)2 10 and 1 μg", "protocol": "as §1, §2, §3"}, "[1]": {"assay": "Enzymatic activity of the GUS portion of 2C3-GUS", "type": "biochemical", "text": "The 6-His GUS was pure based upon SDS-PAGE, where it ran as a single band of 75 kDa band. On gel filtration columns, the 6-His GUS runs as a tetramer of about 300 kDa.\nThe biological activity of each component of the 2C3-GUS conjugate was confirmed."}, "[2]": {"assay": "Blood clearance of radioiodinated 2C3-GUS after intravenous injection", "type": "in vivo", "conditions": "125I-labelled, intravenous injection into mice", "text": "2C3-GUS was radioiodinated with ^125I to a specific activity of 5×10^6 cpm/μg."}, "[3]": {"system": "A673 rhabdomyosarcoma and LS174T colon adenocarcinoma tumors", "assay": "Treatment of mice with established A673 and LS174T tumors", "conditions": "mouse, in vivo"}, "[4]": {"system": "NCI-H358 human NSCLC and HT29 human colonic adenocarcinoma xenografts", "assay": "In vivo localization in mice bearing human tumor xenografts (immunohistochemistry of tumor and organs)", "procedure": "Tumors were grown subcutaneously in immunocompromised mice (NCI-H358 NSCLC in nu/nu mice and HT29 colon adenocarcinoma in SCID mice) until the tumor volume was approximately 1 cm^3. 100 μg of unlabeled antibody for studies using SCID mice, or 100 μg of biotinylated antibody for studies using nude mice, was injected intravenously via a tail vein. Twenty four hours later, the mice were anesthetized, perfused with PBS, and tumor and organs including heart, lungs, liver, kidneys, intestines and spleen were collected and snap frozen in liquid nitrogen.\nThe tumor and organs from each mouse were sectioned on a cryostat and stained for antibody immunohistochemically as above, with the exception that sections from the nude mice were developed using peroxidase labeled streptavidin-biotin complex (Dako, Carpinteria, Calif.) and the sections from the SCID mice were developed using two peroxidase-conjugated secondary antibodies, a goat anti-mouse IgG+IgM followed by a rabbit anti-goat IgG.\n100 μg of GV39M and 3E7 or isotype-matched control IgG were injected into SCID mice bearing HT29 human colonic adenocarcinomas. Twenty-four hours later, the mice were sacrificed, exsanguinated and the tumors and tissues were removed."}, "HT1080 fibrosarcoma": {"system": "HT1080 fibrosarcoma", "assay": "Treatment of established HT1080 fibrosarcoma xenografts", "type": "in vivo, nu/nu mice", "conditions": "100 μg i.p. every other day; tumors 200-250 mm^3 at start", "protocol": "(§4) Male nu/nu mice bearing subcutaneous NCI-H358 tumors or HT1080 fibrosarcoma 200-400 mm^3 in size were injected i.p. with test or control antibodies. The NCI-H358 bearing mice were treated with 100 μg of antibodies per injection three times a week during the first week and twice a week during the second and third week. The mice were then switched to 50 μg per injection every five days. The HT1080 bearing mice were treated with 100 μg of the indicated antibody or saline every other day throughout the duration of the study. In both studies, mice were sacrificed when their tumors reached 2500 mm^3 in size or earlier if tumors began to ulcerate."}, "[5]": {"system": "VEGF-mediated growth of ABAE cells", "assay": "Endothelial cell growth assay (MTS), VEGF-mediated growth of ABAE cells", "type": "cell-based, bovine", "conditions": "Table 5 summary", "procedure": "Adult bovine aortic endothelial (ABAE) cells were plated into 96-well tissue culture plates at 1500 cells/well and grown in the presence of 0.5 nM human VEGF with the addition of the various sample and control antibodies. Control wells received media with or without VEGF.\nAfter 4 days of incubation, the cells were quantified by an MTS (3-(4,5-dimethylthiazol-2-yl)-5-(3-carboxylmethoxyphenyl)-2-(4-sulfophenyl)-2H-tetrazolium, inner salt) conversion assay, where MTS conversion to a formazan is proportional to cell number and can be followed by absorbance at 490 nm (Cell Titer 96 AQueous One Solution Cell Proliferation Assay, Promega, Madison, Wis.). The assay was performed according to the manufacturer's instructions.\nCell growth was estimated by subtracting the MTS conversion in cultures to which VEGF was not added. Results were expressed as a percentage of the MTS conversion in control cultures to which only VEGF was added (Buttke et al., 1993)."}, "VEGFR2 (KDR/Flk-1)": {"system": "VEGFR2 (KDR/Flk-1)", "assay": "ELISA: VEGF binding to VEGFR2-coated wells in presence of antibody", "design": "species or system mouse"}, "VEGFR1 (FLT-1)": {"system": "VEGFR1 (FLT-1)", "assay": "ELISA: VEGF binding to VEGFR1-coated wells in presence of antibody", "procedure": "The extracellular domain of VEGFR1 (Flt-1/Fc, R&D Systems, Minneapolis) or VEGFR2 (sFlk-1-biotin) was coated directly on wells of a microtiter plate or captured by NeutrAvidin (Pierce, Rockford, Ill.) coated wells, respectively. VEGF at a concentration of 1 nM (40 ng/ml) was incubated in the wells in the presence or absence of 100-1000 nM (15 μg-150 μg/ml) of control or test antibodies. The wells were then incubated with 1 μg/ml of rabbit anti-VEGF antibody (A-20, Santa Cruz Biotechnology, Santa Cruz, Calif.).\nThe reactions were developed by the addition of peroxidase-labeled goat anti-rabbit antibody (Dako, Carpinteria, Calif.) and visualized by addition of 3,3′5,5′-tetramethylbenzidine (TMB) substrate (Kirkegaard and Perry Laboratories, Inc.). Reactions were stopped after 15 min with 1 M H3PO4 and read spectrophotometrically at 450 nM."}, "KDR": {"system": "KDR", "assay": "125I-VEGF binding to KDR expressing endothelial cells (ABAE cells)", "design": "species or system bovine"}, "VEGFR2": {"system": "VEGFR2", "assay": "VEGF-induced phosphorylation of VEGFR2 in PAE/KDR cells (immunoprecipitation, western blot)", "type": "cell-based", "conditions": "15 min stimulation, antibodies at 100 nM (15 μg/ml)", "protocol": "PAE/KDR, PAE/FLT, and bEND.3 cells were grown to 80-90% confluency in 100 mm tissue dishes in media containing 5% serun. The cells were then serum starved for 24 hours in media containing 0.1% serum. After pretreatment with […] sodium orthovanadate in PBS for 30 min, the cells were incubated with 5 nM (200 ng/ml) VEGF165, 5 nM (100 ng/ml) bFGF (R&D Systems, Minneapolis, Minn.), or A673 tumor conditioned media in the presence or absence of control or test antibodies for additional 15 min.\nThe cells were then washed with ice-cold PBS containing 10 mM EDTA, 2 mM sodium fluoride, and 2 mM sodium orthovanadate and lysed in lysis buffer (50 mM Tris, 150 mM NaCl, 1% Nonidet P-40, 0.25% sodium deoxycholate, 0.1% CHAPS, 5 mM EDTA, 1.5 mM MgCl2, 2 mM sodium fluoride, 2 mM sodium orthovanadate, 10% glycerol and protease inhibitors (Complete Protease Inhibitor Cocktail tablets, Boehringer Mannheim)). The lysates were clarified by centrifugation and resulting supernatant used for immunoprecipitation.\nThe reactions using the chicken anti-FLT-1 antibody were subsequently incubated with a bridging goat anti-chicken antibody (Kirkegaard and Perry Laboratories, Inc.) for 1 h at 4° C. […]"}, "NCI-H358 NSCLC tumors": {"system": "NCI-H358 NSCLC tumors", "assay": "Treatment of established NCI-H358 NSCLC xenografts", "type": "in vivo, nu/nu mice", "protocol": "as §4\nDoses were 50-100 μg every 3-5 days. […] In addition to measuring mean tumor volume (FIG. 4), photographs of the mice from each treatment group were also taken to show the differences in tumor size and appearance at the end of the study."}, "[6]": {"biological_target": "T1, denatured VEGF121 and VEGF165 (Homo sapiens, UniProt P15692)", "T1 sequence (P15692 27-191 isoform P15692-4)": "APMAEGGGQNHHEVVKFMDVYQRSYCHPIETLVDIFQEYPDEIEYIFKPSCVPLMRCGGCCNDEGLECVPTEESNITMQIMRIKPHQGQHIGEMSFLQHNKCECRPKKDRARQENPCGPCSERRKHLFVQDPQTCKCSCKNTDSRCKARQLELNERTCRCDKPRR", "assay": "Western blot of VEGF under reducing and non-reducing conditions", "type": "binding", "protocol": "The nitrocellulose membrane was blocked using Sea-Block PP82-41 (East Coast Biologics, Berwick, Me.), and probed with primary antibodies using a mini-blotter apparatus (Immunetics, Cambridge, Mass.). The membranes were developed after incubation with the appropriate peroxidase-conjugated secondary antibody by ECL enhanced chemiluminescence.\nWestern blot analyses of anti-VEGF antibodies were conducted by separating VEGF165 in the presence of 5% FCS using SDS-PAGE on a 12% gel and analyzing by a standard western blotting protocol using ECL detection. The primary antibodies were incubated with the nitrocellulose membrane using a multi-lane mini-blotter apparatus."}, "[7]": {"biological_target": "T2, VEGF alone or VEGF associated with sFlk-1 (VEGF:Flk-1) (Homo sapiens, UniProt P15692)", "T2 sequence (P15692 27-191 isoform P15692-4)": "T1 sequence (P15692 27-191 isoform P15692-4)", "assay": "Indirect and capture ELISA for reactivity with VEGF alone or VEGF:Flk-1", "type": "binding", "protocol": "The Flk-1/SEAP protein was produced and purified as described by Tessler et al. (1994). Basically, the extracellular domain of Flk-1 (sFlk-1) was produced in Spodoptera frugiperda (Sf9) cells and purified by immunoaffinity techniques utilizing a monoclonal anti-Flk-1 antibody (1A8). sF1k-1 was then biotinylated and bound on avidin-coated plates.\nThe reactivity was determined as described above for the initial screening.\nA capture ELISA was also developed. In the capture ELISA, microtiter plates were coated overnight at 4° C. with 100 ng of the indicated antibody. […] Streptavidin conjugated to peroxidase (Kirkegaard & Perry Laboratories, Inc.), diluted 1:2000, was used as a second layer and developed."}, "[8]": {"system": "cancer patients having progressive disease", "conditions": "clinical trials; cited from earlier work"}, "[9]": {"conditions": "100 fold molar excess over VEGF"}}}
{"compound": "2C3 F(ab′)2: F(ab′)2 fragment of 2C3", "values": [{"measurement": "Blocking of VEGF binding to VEGFR2/Fc in solution", "setting": "VEGFR2 (KDR/Fc)", "value": "blocked the binding of VEGF to VEGFR2/Fc"}, {"measurement": "Blocking of VEGF binding to VEGFR1/Fc in solution", "setting": "VEGFR1 (Flt-1/Fc)", "value": "not to VEGFR1/Fc"}]}
{"compound": "2C3-GUS", "values": [{"measurement": "Enzymatic activity of GUS portion", "setting": "[1]", "value": "retained enzymatic activity"}, {"measurement": "t½ α", "setting": "[2]", "value": "about 6 hours"}, {"measurement": "t½ β", "setting": "[2]", "value": "about 25 hours"}]}
{"compound": "2C3: anti-VEGF monoclonal antibody, IgG2a,k, raised to recombinant human VEGF; hybridoma ATCC PTA 1595; blocks VEGF binding to VEGFR2, not VEGFR1", "values": [{"measurement": "Effect on growth of established A673 and LS174T tumors", "setting": "[3]", "value": "significantly slowed the growth"}, {"measurement": "Tumor localization in the HT29 human tumor model", "setting": "[4]; after i.v. injection", "value": "localized strongly to the connective tissue"}, {"measurement": "Immunohistochemical Reactivity, Tumor", "setting": "[4]; as E17, 3E7 and GV39M bound tumor vascular endothelium, 2C3 bound tumor stroma", "value": "3+"}, {"measurement": "Effect on growth of HT1080 tumors", "setting": "HT1080 fibrosarcoma", "value": "arrested the growth of the tumors"}, {"measurement": "Blocks VEGF-induced proliferation", "setting": "[5]", "value": "Yes"}, {"measurement": "Reduction in VEGF binding to VEGFR2", "setting": "VEGFR2 (KDR/Flk-1); [9]", "value": "about 74%"}, {"measurement": "Amount VEGF bound to VEGFR2-coated wells, % of amount bound in the absence of antibody", "setting": "VEGFR2 (KDR/Flk-1); 1000-fold molar excess of antibody over VEGF (1 nM VEGF)", "value": "~19", "unit": "%"}, {"measurement": "Reduction in VEGF binding to VEGFR2", "setting": "VEGFR2 (KDR/Flk-1); 1000 fold molar excess over VEGF", "value": "about 81%"}, {"measurement": "Blocks VEGF from binding to VEGFR2", "setting": "VEGFR2 (KDR/Flk-1); Table 5 summary", "value": "Yes"}, {"measurement": "Amount VEGF that bound to ELISA wells, maintained", "setting": "VEGFR1 (FLT-1); [9]", "value": "about 92%"}, {"measurement": "Blocks VEGF from binding to VEGFR1", "setting": "VEGFR1 (FLT-1); Table 5 summary", "value": "No"}, {"measurement": "Blocking of 125I-VEGF binding to KDR on ABAE cells", "setting": "KDR", "value": "blocks VEGF from binding to KDR in a concentration dependent manner"}, {"measurement": "Blocking of VEGF-induced phosphorylation of VEGFR2", "setting": "VEGFR2", "value": "block VEGF-induced phosphorylation of VEGFR2"}, {"measurement": "Mean tumor weight at the end of the study (day 116)", "setting": "NCI-H358 NSCLC tumors; FIG. 5A, 100 μg i.p., initial treatment 500 μg i.v.", "value": 0.054, "unit": "g"}, {"measurement": "Mean tumor volume after approximately 14 wk of treatment", "setting": "NCI-H358 NSCLC tumors; FIG. 5A, 100 μg i.p., start 480 mm^3 (2C3), 428 mm^3 (3E7)", "value": 84, "unit": "mm^3"}, {"measurement": "Decrease in mean tumor volume", "setting": "NCI-H358 NSCLC tumors; FIG. 5A, after approximately 14 wk", "value": "approximately 80%"}, {"measurement": "Mean tumor volume at the end of the study, % of the initial mean tumor volume", "setting": "NCI-H358 NSCLC tumors; tumors 300-450 mm^3 at start, 50-100 μg i.p. every 3-5 days, approximately 10 weeks", "value": 30, "unit": "%"}, {"measurement": "Reactivity with VEGF on western blot", "setting": "[6]", "value": "react with denatured VEGF121 and VEGF165"}, {"measurement": "Predominant Reactivity", "setting": "[7]", "value": "VEGF"}]}
{"compound": "NC(=O)c1nnn(Cc2cc(Cl)c(C(=O)c3ccc(Cl)cc3)c(Cl)c2)c1N", "note": "[CAI, carboxyamidotriazole]", "values": [{"measurement": "Disease stabilization, share of cancer patients having progressive disease before treatment", "setting": "[8]", "value": 49, "unit": "%"}]}
